Usually AC50 stands for the concentration at which the activity in the assay is half-maximal. The IC50 is the concentration needed to halve the response being measured. What is called EC50 is the concentration that produces a half-maximal response.

Assay [1] deals with INS1. The assay is described as follows: INS-1E survival protection against cytokine death – cell-based, luminescence, retest, dose response (AID 449756).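 Note: cell death triggered by IL-1 beta plus TNF-alpha plus IFN-gamma mixture; protective hits raise ATP signal compared with cytokine alone wells.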 The assay is classed as functional. The settings on record: Rattus norvegicus.
For assay [2], the system named is H9c2. The assay is described as follows: cells. The assay is classed as functional, cell-based. The settings on record: Rattus norvegicus, H9c2, Myocardium.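 Note: confirmatory concentration-response retest of ultra-high-throughput screening hits for modulation of myocardial damage; cell death induced by hydrogen peroxide oxidative stress; compound pretreatment for 60 min then peroxide exposure for 2 h; potency is for protecting the cells against peroxide damage rather than for killing them.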
For assay [3], the target named is T1, Streptokinase A (Streptococcus pyogenes serotype M1, UniProt P10520).
T1 sequence (P10520 whole entry): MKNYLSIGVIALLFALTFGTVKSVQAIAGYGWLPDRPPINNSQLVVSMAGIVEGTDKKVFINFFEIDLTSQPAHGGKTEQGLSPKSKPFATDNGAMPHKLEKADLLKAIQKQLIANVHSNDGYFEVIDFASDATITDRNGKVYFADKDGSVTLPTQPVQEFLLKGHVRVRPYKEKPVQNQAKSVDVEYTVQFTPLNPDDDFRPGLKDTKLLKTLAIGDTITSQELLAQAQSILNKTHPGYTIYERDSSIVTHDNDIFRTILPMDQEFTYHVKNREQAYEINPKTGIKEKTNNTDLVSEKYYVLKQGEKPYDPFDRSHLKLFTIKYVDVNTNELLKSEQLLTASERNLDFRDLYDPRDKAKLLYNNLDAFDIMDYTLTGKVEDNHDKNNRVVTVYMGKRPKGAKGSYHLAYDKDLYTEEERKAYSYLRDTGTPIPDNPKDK
The assay is described as follows: viability-normalized secreted streptokinase activity reduction – plasminogen activation absorbance, OD405, dose response (AID 1914).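 Note: secreted streptokinase activity via plasminogen activation per viability signal from cell pellet.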 The assay is classed as functional, Streptococcus pyogenes M1 GAS.

For assay [4], the system named is Streptococcus. The assay can be described thus: GAS UMAA2166 growth inhibition – luminescence, BacTiterGlo, counter-screen for streptokinase expression inhibitor project, dose response (AID 1915).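 Note: potency for reduction of bacterial viability or growth.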 The assay is classed as functional, organism-based. (Counterscreens check selectivity or assay interference.)
For assay [5], the system named is Streptococcus sp. 'group A'. The assay is described as follows: Streptococcus pyogenes SK(-)GAS viability under kanamycin – luminescence, BacTiterGlo, confirmation, counter-screen for streptokinase expression inhibitor project, dose response (AID 1900). The assay is classed as functional, organism-based.
For assay [6], the target named is Cytochrome P450 2C19 (Homo sapiens, UniProt P33261). The assay is described as follows: Cytochrome panel assay with activity outcomes. Panel member name: p450-cyp2c19 Compounds with AC50 equal or less than 10 uM are considered active. The assay is classed as functional. The settings on record: read-out: AC50.
Sequence of Cytochrome P450 2C19 (P33261 whole entry): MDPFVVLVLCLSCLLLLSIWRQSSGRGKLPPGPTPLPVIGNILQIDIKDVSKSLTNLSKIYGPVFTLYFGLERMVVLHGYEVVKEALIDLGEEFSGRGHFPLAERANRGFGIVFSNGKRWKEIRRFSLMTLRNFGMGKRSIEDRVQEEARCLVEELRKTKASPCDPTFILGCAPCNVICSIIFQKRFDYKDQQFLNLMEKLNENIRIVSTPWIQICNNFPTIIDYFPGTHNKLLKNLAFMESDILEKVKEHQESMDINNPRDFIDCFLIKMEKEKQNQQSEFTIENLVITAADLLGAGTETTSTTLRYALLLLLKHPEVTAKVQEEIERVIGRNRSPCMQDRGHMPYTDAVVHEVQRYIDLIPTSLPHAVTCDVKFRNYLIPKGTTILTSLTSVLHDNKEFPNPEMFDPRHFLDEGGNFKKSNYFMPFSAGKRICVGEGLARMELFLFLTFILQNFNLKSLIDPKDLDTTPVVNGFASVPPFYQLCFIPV
Assay [7] deals with Cytochrome P450 2C9 (Homo sapiens, UniProt P11712).
Sequence of Cytochrome P450 2C9 (P11712 whole entry): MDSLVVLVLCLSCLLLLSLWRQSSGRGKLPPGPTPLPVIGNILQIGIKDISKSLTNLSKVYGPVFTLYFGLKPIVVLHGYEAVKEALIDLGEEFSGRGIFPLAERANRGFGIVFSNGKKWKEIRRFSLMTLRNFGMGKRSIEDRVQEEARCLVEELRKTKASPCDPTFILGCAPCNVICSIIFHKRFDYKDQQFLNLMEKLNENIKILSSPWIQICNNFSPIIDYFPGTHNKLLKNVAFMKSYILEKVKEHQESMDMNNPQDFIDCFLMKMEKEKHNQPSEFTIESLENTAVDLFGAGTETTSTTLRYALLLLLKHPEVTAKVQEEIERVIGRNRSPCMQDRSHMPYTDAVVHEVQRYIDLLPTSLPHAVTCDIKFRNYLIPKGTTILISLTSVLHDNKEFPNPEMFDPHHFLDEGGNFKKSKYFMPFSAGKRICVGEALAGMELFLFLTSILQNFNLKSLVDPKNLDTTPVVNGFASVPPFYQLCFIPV
Assay [8] addresses Cytochrome P450 3A4 (Homo sapiens, UniProt P08684).
For assay [9], the target named is T2, Zinc finger protein mex-5 (Caenorhabditis elegans, UniProt Q9XUB2).
T2 sequence (Q9XUB2 whole entry): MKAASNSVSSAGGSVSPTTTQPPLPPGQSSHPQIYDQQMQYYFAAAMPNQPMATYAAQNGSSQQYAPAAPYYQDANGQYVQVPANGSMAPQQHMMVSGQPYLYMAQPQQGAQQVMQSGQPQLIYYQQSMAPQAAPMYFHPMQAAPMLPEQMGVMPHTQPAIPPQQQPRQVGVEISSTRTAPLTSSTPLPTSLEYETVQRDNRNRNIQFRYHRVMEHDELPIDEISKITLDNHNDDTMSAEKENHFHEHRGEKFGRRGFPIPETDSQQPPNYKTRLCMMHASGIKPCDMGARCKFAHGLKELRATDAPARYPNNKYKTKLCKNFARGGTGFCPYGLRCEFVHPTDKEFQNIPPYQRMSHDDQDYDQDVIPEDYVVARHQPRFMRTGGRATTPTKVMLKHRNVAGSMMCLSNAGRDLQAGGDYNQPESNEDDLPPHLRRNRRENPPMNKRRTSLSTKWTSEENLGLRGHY
The assay is described as follows: potency of MEX-5 RNA-binding blockers – biochemical, C. elegans, fluorescence polarization, dose response (AID 1960). (In general: Polarisation of emitted light reports the rotation of a fluorescent probe.)

Assay [10] concerns the target T3, RNA-binding protein pos-1 (Caenorhabditis elegans, UniProt G5EF15).
T3 sequence (G5EF15 whole entry): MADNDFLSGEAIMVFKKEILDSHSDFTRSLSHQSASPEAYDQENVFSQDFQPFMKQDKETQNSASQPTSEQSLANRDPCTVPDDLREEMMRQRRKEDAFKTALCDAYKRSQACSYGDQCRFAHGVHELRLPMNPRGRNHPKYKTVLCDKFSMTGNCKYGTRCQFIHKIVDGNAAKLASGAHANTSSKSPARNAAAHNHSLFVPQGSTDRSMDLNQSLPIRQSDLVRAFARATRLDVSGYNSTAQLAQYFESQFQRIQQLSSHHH
The assay can be described thus: disruptors of C. elegans POS-1 RNA interaction – biochemical, fluorescence polarization, dose response (AID 1964).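 Note: purified POS-1 fused to maltose binding protein made in E. coli; potency of compounds blocking POS-1 binding to fluorescent RNA.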

Where “and” joins values, the source holds several entries; their conditions need not be identical. Identical values can stand only once. Calls of active or inactive are those of the source.

Sequence of Cytochrome P450 3A4 (P08684 whole entry): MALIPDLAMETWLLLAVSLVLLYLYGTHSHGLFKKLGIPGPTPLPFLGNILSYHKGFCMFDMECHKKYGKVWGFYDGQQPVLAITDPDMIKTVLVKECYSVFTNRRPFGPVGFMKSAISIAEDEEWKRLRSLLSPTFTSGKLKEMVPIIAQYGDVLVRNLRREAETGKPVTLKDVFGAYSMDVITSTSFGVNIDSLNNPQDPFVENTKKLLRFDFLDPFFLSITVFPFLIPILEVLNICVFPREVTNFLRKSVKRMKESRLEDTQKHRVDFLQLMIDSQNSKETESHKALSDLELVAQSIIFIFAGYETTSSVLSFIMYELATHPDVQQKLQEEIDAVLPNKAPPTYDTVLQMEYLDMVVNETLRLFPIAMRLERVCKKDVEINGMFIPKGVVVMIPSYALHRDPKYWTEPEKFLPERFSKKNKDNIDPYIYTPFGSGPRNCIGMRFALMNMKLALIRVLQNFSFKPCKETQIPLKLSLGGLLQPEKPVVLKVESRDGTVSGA

For `CCCCn1cc[n+](C2=C([N-]S(=O)(=O)c3ccc(Cl)cc3)C(=O)c3ccccc3C2=O)c1`, in assay [1], the AC50 was 4.18 µM (active).

As to `C/C(=N/NC(=O)c1cccs1)c1cccc(NC(=O)C2CC2)c1`, the IC50 in assay [2] is > 79 µM (inactive).

Turning to `Cc1cccc(C)c1OC(=O)C(c1ccccc1)c1ccccc1`, the 50% effective concentration (EC50) in assay [3] was 17 µM (active); in [4], > 150 µM (not active); in [5], 9.04 µM (active).

As for `Clc1nc2sccn2c1/C=N/n1cnc2ccccc21`, in [2], the IC50 was > 79 µM (inactive).

As to `CC1Cc2ccccc2N1C(=O)Cn1cc([N+](=O)[O-])cn1` (configuration not stated), the AC50 was 11.2 µM (inconclusive) in assay [6] and 39.8 µM (inconclusive) in [7].

Regarding `C/C(=N\Nc1nc2ccc(Cl)cc2o1)c1ccccc1`, the EC50 in assay [3] is > 150 µM (not active); in assay [4] it was > 150 µM (not active); in assay [5], 6.79 µM (active).

`C=C[C@H](CC(C)C)N(Cc1ccccc1)S(=O)(=O)N(Cc1ccccc1)[C@@H](C=C)CC(C)C`: in assay [1], the AC50 is 5.4 µM (active).

For `O=C(Nc1cccc(-c2nc3cccnc3s2)c1)c1ccco1`, the IC50 in assay [2] was > 79 µM (inactive).

`N[C@@H](C(=O)O)[C@H](CC(=O)O)c1ccc(Cl)cc1`: the AC50 in [6] is 25.1 µM (inconclusive); in assay [7] it was 39.8 µM (inconclusive).

For `Cc1cnc(CNc2ncncc2-c2ccccc2C#N)cn1`, in [8], the AC50 was 12.6 µM (inconclusive).

Regarding `CC(=O)c1cccc(NC(=O)C(C)OC(=O)CCc2nc(O)c3ccccc3n2)c1` (configuration not stated), the IC50 in assay [2] was 15.7 µM (active).

Consider `OC(CNC1CCCCC1)COCCOc1ccc(Br)cc1` (configuration not stated), for which the AC50 in assay [1] is 61.9 µM (active).

As to `COc1ccc(-c2nc3cnc(N4CCN(C)CC4)nc3n(CCC#N)c2=O)cc1`, in [8], the AC50 was 39.8 µM (inconclusive).

Turning to `O=C(OCC(=O)c1cccs1)c1cccc(C(=O)OCC(=O)c2cccs2)n1`, the AC50 in assay [8] was 35.5 µM (inconclusive).

With `CC(C)CC(=O)Nc1ccc2c(c1)oc1ccccc12`, the values for the AC50 in assay [6] and in assay [7] were 2.82 µM (inconclusive) and 8.91 µM (inconclusive), respectively.

`CCOC(=O)c1cc(-c2nnc(-c3cc(OC)c(OC)c(OC)c3)o2)c(C)nc1C`: the IC50 in assay [2] was > 79 µM (inactive).

Regarding `COC(=O)c1c(NC(=O)c2ccn(C)n2)sc2c1CCC2`, the EC50 in [3], in assay [4] and in [5] was > 150 µM (not active) throughout.

For the compound `O=C(CCc1nc(O)c2ccccc2n1)OCCOc1ccc(Cl)cc1`, the IC50 in assay [2] is > 79 µM (inactive).

In the case of `CCOc1ccc(NC(=O)c2cc3c(=O)n(C)c4ccccc4c3n2C)cc1`, the IC50 in assay [2] is > 79 µM (inactive).

Regarding `COc1ccc2nc(O)c(CNc3ccc(C)c(C)c3)cc2c1`, the IC50 in assay [2] is > 79 µM (inactive).

For `COC(=O)[C@H]1[C@H](c2ccccc2)C(=O)[C@@]2(O)c3ccccc3O[C@@]12c1ccccc1`, the figures for the AC50 in [8] and in assay [7] were 3.16 µM (inconclusive) and 6.31 µM (inconclusive), respectively.

For `CC(C)CN1CC[C@@]2(CCCN(S(=O)(=O)c3ccccc3)C2)C1`, the AC50 in assay [8] is 5.01 µM (inconclusive).

On to `Cc1cccc(N2C(S)=NC(=Nc3c(C)cccc3C)C23CCOC(C)(C)C3)c1` (configuration not stated), for which the AC50 in assay [1] was 3.8 µM (active).

In the case of `C/C(CCN1CCc2nc(-c3ccccc3)c(-c3ccccc3)cc2C1)=N\O[C@@H](C)c1cn([C@H](CO)Cc2ccccc2)nn1`, the half-maximal activity concentration (AC50) in [8] was 3.98 µM (inconclusive) and 3.16 µM (inconclusive).

As for `O=C(CN1CCN(S(=O)(=O)c2cc(Cl)ccc2Cl)CC1)c1ccc(O)c(O)c1`, the IC50 in assay [2] is > 79 µM (inactive).

Consider `CN(C)c1ccccc1CN1CCCN(Cc2ccccc2N(C)C)C1c1ccncc1`, for which the AC50 in assay [8] is 3.16 µM (inconclusive).

Turning to `N#Cc1cc(NC(=O)c2ccc(F)cc2)c(O)n2c1nc1ccccc12`, the concentration giving a half-maximal response (EC50) in assay [9] was 35 µM (active); in assay [10] it was 21.7 µM (inconclusive).

On to `CCCn1nc(C(=O)OCC(=O)c2c(N)n(C)c(=O)n(C)c2=O)c2ccccc2c1=O`, for which the IC50 in [2] is 17.1 µM (active).

Regarding `COC(=O)c1ccc(OCC(=O)Nc2ccccc2C(=O)NC2CC2)cc1`, the IC50 in assay [2] was > 79 µM (inactive).

Take `O=C1c2ccccc2CC1(Cc1ccccc1)Cc1ccccc1`: the figures for the EC50 in assay [3], in assay [4] and in assay [5] were 12.9 µM (active), > 150 µM (not active) and 6.04 µM (active), respectively.

For `O=c1cnc2cnc(Nc3ccccc3)nc2n1Cc1ccc(F)cc1`, in assay [7], the AC50 is 7.94 µM (inconclusive).

As for `CC(=O)Nc1ccc(S(=O)(=O)NCC2CCC(C(=O)N3CCN(c4ccccn4)CC3)CC2)cc1` (configuration not stated), the AC50 was 10 µM (inconclusive) in assay [6] and 3.98 µM (inconclusive) in [7].

With `CC(C)=NNc1cnnc2ccc([N+](=O)[O-])cc12`, in [2], the IC50 was 8.8 µM (active).

As for `Cc1cc(/C=C2\C(=O)NC(=O)N(c3ccc(F)cc3)C2=O)c(C)n1-c1cccc(C(=O)O)c1`, the EC50 in assay [9] and in [10] was > 300 µM (not active) in each case.

Consider `COc1ccc(CC(=O)N(Cc2ccccc2)c2ccccc2)cc1S(=O)(=O)N1CCOCC1`, for which, in assay [2], the IC50 was 70.9 µM (inactive).

On to `CN1CCN(C2=Cc3ccccc3Oc3ccc(Cl)cc32)CC1`, for which, in [8], the AC50 was 31.6 µM (inconclusive).

Turning to `Cc1cc(-c2ccccc2)nc(O)c1S(=O)(=O)c1ccc(Cl)cc1`, the values for the AC50 in [6] and in assay [7] were 5.62 µM (inconclusive) and 3.55 µM (inconclusive), respectively.

Take `Cc1cc(Oc2cnn(C(C)(C)C)c(=O)c2Cl)cc(C(C)C)c1`: the EC50 in [3] was 9.54 µM (active); in assay [4], 12.6 µM (active); in [5], 6.31 µM (active).

`CC(C)COc1ccc(/C=C2/Sc3ccccc3C2=O)cc1`: the EC50 in assay [9] and in assay [10] was > 300 µM (not active) each time.

For `Cc1nc2cnc(N(C)C)nc2n(CCc2ccccc2)c1=O`, in assay [8], the AC50 is 31.6 µM (inconclusive).

Turning to `NCC[Se][Se]CCN`, the AC50 in assay [7] is 0.316 µM (inconclusive).

On to `CCc1cc[n+](C2=Nc3ccccc3[N-]C2=C(C#N)C#N)cc1`, for which the AC50 in assay [6] is 25.1 µM (inconclusive); in [8] it was 15.8 µM (inconclusive); in assay [7] it was 14.1 µM (inconclusive).

`FC(F)(F)c1ccccc1-c1ccc2ncnc(N3CCOCC3)c2c1`: the AC50 in [8] is 5.01 µM (inconclusive).

For `CCOC(=O)Cc1cc(O)n2ncc(-c3cccc(Br)c3)c2n1`, the EC50 in assay [3] is > 150 µM (not active); in assay [4], 18 µM (active); in assay [5], 2.14 µM (active).

On to `COCCn1c(=O)cnc2cnc(OCc3ccccc3)nc21`, for which, in assay [8], the AC50 was 20 µM (inconclusive).

As for `O=C(Cc1ccc(Br)cc1)OCC(=O)c1ccc2c(c1)OCCO2`, in assay [7], the AC50 was 7.94 µM (inconclusive).

As for `c1ccc2sc(NC3=NCN(C4CCCCCC4)CN3)nc2c1`, the figures for the AC50 in [8] and in [7] were 7.94 µM (inconclusive) and 39.8 µM (inconclusive), respectively.

With `Cc1cc(C)cc(N2C(=O)NC(=O)/C(=C\c3cc(C)n(C)c3C)C2=O)c1`, the EC50 in [9] is 23.5 µM (active); in [10], 6.75 µM (active).

Regarding `CCOC(=O)c1c(NC(C)=O)sc2c(OC)cccc12`, in [7], the AC50 is 5.01 µM (inconclusive).

As to `CCc1nnc(NC(=O)c2ccc(S(=O)(=O)N(C)c3ccccc3)cc2)o1`, the EC50 in [3] was > 150 µM (not active); in [4] it was 8.72 µM (active); in assay [5], 7.35 µM (active).

The values above are taken from ChEMBL document CHEMBL1201862, “PubChem BioAssay data set” (2004).
